# System: p-IKKa levels in L363 (NIK translocated multiple myeloma) cells
# Assay: Assay 2: Effect of compounds on p-IKKa levels in L363 (NIK translocated multiple myeloma) cells
# Type: cell-based
# Conditions: Homo sapiens, L-363, 6 h, read-out: Assay 2 IC50 (nM), p-IKKa (Ser 176/180) in BAFF stimulated L363 cells with MG132, 6 h; average if tested more than once
# Summary of the method: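 L363 cells incubated overnight ± 250 ng/ml BAFF, then 6 h at 37 °C with compound (0.3% DMSO) ± 10 μM MG132. Lysates assayed for p-IKKa (Ser176/180) by AlphaLISA SureFire. IC50 from sigmoidal fit of % inhibition normalized to BAFF/MG132-stimulated and unstimulated controls.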
row,Compound,IC50 [nM]
1,"CN1CC[C@@](O)(c2cc(-c3cccc(-c4ccnc(Nc5ncn(C)n5)n4)n3)no2)C1=O [Example 318, (R)-3-Hydroxy-1-methyl-3-(3-(6-(2-((1-methyl-1H-1,2,4-triazol-3-yl)amino)pyrimidin-4-yl)pyridin-2-yl)isoxazol-5-yl)pyrrolidin-2-one]",> 500
2,"Cc1nnc(Nc2nccc(-c3cccc(-c4cc([C@]5(O)CCN(C)C5=O)on4)n3)n2)o1 [Example 319, (R)-3-Hydroxy-1-methyl-3-(3-(6-(2-((5-methyl-1,3,4-oxadiazol-2-yl)amino)pyrimidin-4-yl)pyridin-2-yl)isoxazol-5-yl)pyrrolidin-2-one]",> 500
3,CN1CC[C@@](O)(c2cc(-c3cccc(-c4ccnc(Nc5ccnc(N6CCOCC6)c5)n4)n3)no2)C1=O [Example 320],< 50
4,"CN1CC[C@@](O)(c2cc(-c3cccc(-c4ccnc(Nc5nnnn5C)n4)n3)no2)C1=O [Example 321, (R)-3-Hydroxy-1-methyl-3-(3-(6-(2-((1-methyl-1H-tetrazol-5-yl)amino)pyrimidin-4-yl)pyridin-2-yl)isoxazol-5-yl)pyrrolidin-2-one]",> 500
5,"COc1cccc(Nc2nccc(-c3cccc(-c4cc([C@]5(O)CCN(C)C5=O)on4)n3)n2)n1 [Example 322, (R)-3-Hydroxy-3-(3-(6-(2-((6-methoxypyridin-2-yl)amino)pyrimidin-4-yl)pyridin-2-yl)isoxazol-5-yl)-1-methylpyrrolidin-2-one]",50 to 500
6,"CN1CC[C@@](O)(c2cc(-c3cccc(-c4ccnc(Nc5cn(C)cn5)n4)n3)no2)C1=O [Example 323, (R)-3-Hydroxy-1-methyl-3-(3-(6-(2-((1-methyl-1H-imidazol-4-yl)amino)pyrimidin-4-yl)pyridin-2-yl)isoxazol-5-yl)pyrrolidin-2-one]",50 to 500
7,"CN1CC[C@@](O)(c2cc(-c3cccc(-c4ccnc(Nc5nnc(C(F)F)o5)n4)n3)no2)C1=O [Example 324, (R)-3-(3-(6-(2-((5-(Difluoromethyl)-1,3,4-oxadiazol-2-yl)amino)pyrimidin-4-yl)pyridin-2-yl)isoxazol-5-yl)-3-hydroxy-1-methylpyrrolidin-2-one]",> 500
8,"CN1CC[C@@](O)(c2cn(-c3cccc(-c4ccnc(Nc5cn(C)nc5F)n4)n3)nn2)C1=O [Example 325, (R)-3-(1-(6-(2-((3-Fluoro-1-methyl-1H-pyrazol-4-yl)amino)pyrimidin-4-yl)pyridin-2-yl)-1H-1,2,3-triazol-4-yl)-3-hydroxy-1-methylpyrrolidin-2-one]",50 to 500
9,"Cc1nccc(Nc2nccc(-c3cccc(-n4cc([C@]5(O)CCN(C)C5=O)nn4)n3)n2)c1F [Example 326, (R)-3-(1-(6-(2-((3-Fluoro-2-methylpyridin-4-yl)amino)pyrimidin-4-yl)pyridin-2-yl)-1H-1,2,3-triazol-4-yl)-3-hydroxy-1-methylpyrrolidin-2-one]",< 50
10,"CN1CC[C@@](O)(c2cn(-c3cccc(-c4ccnc(Nc5cnn(C)c5Cl)n4)n3)nn2)C1=O [Example 327, (R)-3-(1-(6-(2-((5-Chloro-1-methyl-1H-pyrazol-4-yl)amino)pyrimidin-4-yl)pyridin-2-yl)-1H-1,2,3-triazol-4-yl)-3-hydroxy-1-methylpyrrolidin-2-one]",< 50
11,"CN1CC[C@@](O)(c2cc(-c3cccc(-c4ccnc(Nc5cnn(C)c5F)n4)n3)no2)C1=O [Example 329, (R)-3-(3-(6-(2-((5-Fluoro-1-methyl-1H-pyrazol-4-yl)amino)pyrimidin-4-yl)pyridin-2-yl)isoxazol-5-yl)-3-hydroxy-1-methylpyrrolidin-2-one]",< 50
12,"CN1CC[C@@](O)(c2cc(-c3cccc(-c4ccnc(Nc5ccncc5F)n4)n3)no2)C1=O [Example 330, (R)-3-(3-(6-(2-((3-Fluoropyridin-4-yl)amino)pyrimidin-4-yl)pyridin-2-yl)isoxazol-5-yl)-3-hydroxy-1-methylpyrrolidin-2-one]",< 50
13,"CN1CC[C@@](O)(c2cc(-c3cccc(-c4ccnc(Nc5ncccc5F)n4)n3)no2)C1=O [Example 331, (R)-3-(3-(6-(2-((3-Fluoropyridin-2-yl)amino)pyrimidin-4-yl)pyridin-2-yl)isoxazol-5-yl)-3-hydroxy-1-methylpyrrolidin-2-one]",> 500
14,"Cc1ccc(Nc2nccc(-c3cccc(-c4cc([C@]5(O)CCN(C)C5=O)on4)n3)n2)cn1 [Example 332, (R)-3-Hydroxy-1-methyl-3-(3-(6-(2-((6-methylpyridin-3-yl)amino)pyrimidin-4-yl)pyridin-2-yl)isoxazol-5-yl)pyrrolidin-2-one]",50 to 500
15,"Cc1ccncc1Nc1nccc(-c2cccc(-c3cc([C@]4(O)CCN(C)C4=O)on3)n2)n1 [Example 333, (R)-3-Hydroxy-1-methyl-3-(3-(6-(2-((4-methylpyridin-3-yl)amino)pyrimidin-4-yl)pyridin-2-yl)isoxazol-5-yl)pyrrolidin-2-one]",50 to 500
16,"Cc1nccc(Nc2nccc(-c3cccc(-c4cc([C@]5(O)CCN(C)C5=O)on4)n3)n2)c1F [Example 334, (R)-3-(3-(6-(2-((3-Fluoro-2-methylpyridin-4-yl)amino)pyrimidin-4-yl)pyridin-2-yl)isoxazol-5-yl)-3-hydroxy-1-methylpyrrolidin-2-one]",< 50
17,"CCn1cc(Nc2nccc(-c3cccc(-n4cc([C@]5(O)CCN(C)C5=O)nn4)n3)n2)cn1 [Example 335, (R)-3-(1-(6-(2-((1-Ethyl-1H-pyrazol-4-yl)amino)pyrimidin-4-yl)pyridin-2-yl)-1H-1,2,3-triazol-4-yl)-3-hydroxy-1-methylpyrrolidin-2-one]",< 50
18,"CO[C@@H]1CCOC[C@H]1Nc1nccc(-c2cccc(-c3cc([C@]4(O)CCN(C)C4=O)on3)n2)n1 [Example 338, (R)-3-Hydroxy-3-(3-(6-(2-(((trans)-4-methoxytetrahydro-2H-pyran-3-yl)amino)pyrimidin-4-yl)pyridin-2-yl)isoxazol-5-yl)-1-methylpyrrolidin-2-one]",> 500
19,"CN1CC[C@@](O)(c2cc(-c3cccc(-c4ccnc(N[C@@H]5COC[C@@H]5F)n4)n3)no2)C1=O [Example 339, (R)-3-(3-(6-(2-(((cis)-4-Fluorotetrahydrofuran-3-yl)amino)pyrimidin-4-yl)pyridin-2-yl)isoxazol-5-yl)-3-hydroxy-1-methylpyrrolidin-2-one]",50 to 500
20,"CN1CC[C@@](O)(c2cc(-c3cccc(-c4ccnc(NCC5CCOCC5)n4)n3)no2)C1=O [Example 340, (R)-3-Hydroxy-1-methyl-3-(3-(6-(2-(((tetrahydro-2H-pyran-4-yl)methyl)amino)pyrimidin-4-yl)pyridin-2-yl)isoxazol-5-yl)pyrrolidin-2-one]",50 to 500
21,"CN1CC[C@@](O)(c2cc(-c3cccc(-c4ccnc(N[C@@H]5COC[C@H]5F)n4)n3)no2)C1=O [Example 342, (R)-3-(3-(6-(2-(((trans)-4-Fluorotetrahydrofuran-3-yl)amino)pyrimidin-4-yl)pyridin-2-yl)isoxazol-5-yl)-3-hydroxy-1-methylpyrrolidin-2-one]",50 to 500
22,"C[C@H](F)CCNc1nccc(-c2cccc(-c3cc([C@]4(O)CCN(C)C4=O)on3)n2)n1 [Example 344, (R)-3-(3-(6-(2-(((S)-3-Fluorobutyl)amino)pyrimidin-4-yl)pyridin-2-yl)isoxazol-5-yl)-3-hydroxy-1-methylpyrrolidin-2-one]",50 to 500
